Format in all cases: cell-based
Assay [1] deals with R5-tropic HIV-1/Ba-L. Briefly: Antiviral assay in PHA-P-activated PBMC, RT activity in supernatant at day 7 (Example 3). To be noted: mean of triplicate; for ED70 VIH-1/Ba-L(R5) Average: effective dose to inhibit 70% of HIV-1 replication; for ED90 VIH-1/Ba-L(R5) Average: effective dose to inhibit 90% of HIV-1 replication. The protocol:
Briefly, the X4-tropic HIV-1-LAI (Barre-Sinoussi, Science 220, 868-71, 1983) or the R5-tropic HIV-1/Ba-L (Gartner et al, Science 233, 215-9, 1986) strains were amplified and titrated in vitro on Phytohemaglutinin-P (PHA-P)-activated peripheral blood mononuclear cells (PBMC). Tissue culture infectious doses were calculated using Kärber's formula (Kärber, Arch. Exp. Path. Pharmak. 162, 480-483, 1931). […] Drugs were maintained throughout the culture, and cell supernatants were collected at day 7 post-infection and stored at −20° C. Azidothymidine (AZT) was used in these experiments as an internal control. Viral replication was measured by quantifying reverse transcriptase (RT) activity in cell culture supernatants using the RetroSys HIV RT kit (Innovagen). In parallel, cytotoxicity of the samples was evaluated in uninfected PHA-P-activated PBMC by a methyltetrazolium salt (MTT) assay on day 7. Experiments were performed in triplicate and 50, 70 and 90% effective doses and cytotoxic doses were calculated using SoftMaxPro software.
Molecules and viruses were maintained throughout the culture, and cell supernatants were collected at day 7 post-infection from which reverse transcriptase activity was quantified. Experiments were performed in triplicate and 50, 70 and 90% effective doses (ED), in nM (±S.D.) were calculated using SoftMaxPro software.

The subject of assay [2] is X4-tropic HIV-1-LAI. Described as above. The conditions noted are these: mean of triplicate; for ED70 VIH-1-LAI(X4) Average: effective dose to inhibit 70% of HIV-1 replication; for ED90 VIH-1-LAI(X4) Average: effective dose to inhibit 90% of HIV-1 replication. As to the method: The antiviral experiment have been performed as described in WO/2009/098147 and Nature Chemical Biology, 2009, 5(10), 743-748.
Briefly, the X4-tropic HIV-1-LAI (Barre-Sinoussi, Science 220, 868-71, 1983) or the R5-tropic HIV-1/Ba-L (Gartner et al, Science 233, 215-9, 1986) strains were amplified and titrated in vitro on Phytohemaglutinin-P (PHA-P)-activated peripheral blood mononuclear cells (PBMC). Tissue culture infectious doses were calculated using Kärber's formula (Kärber, Arch. Exp. Path. Pharmak. 162, 480-483, 1931). For the antiviral assay, PHA-P-activated PBMC were pre-treated for 30 minutes with six concentrations of each drug (1:5 dilutions between 0.5 μM and 160 pM) and infected with one hundred 50% tissue culture infectious doses (TCID50) of either the X4-tropic LAI or R5-tropic Ba-L strain. Drugs were maintained throughout the culture, and cell supernatants were collected at day 7 post-infection and stored at −20° C. Azidothymidine (AZT) was used in these experiments as an internal control. Viral replication was measured by quantifying reverse transcriptase (RT) activity in cell culture supernatants using the RetroSys HIV RT kit (Innovagen). In parallel, cytotoxicity of the samples was evaluated in uninfected PHA-P-activated PBMC by a methyltetrazolium salt (MTT) assay on day 7. Experiments were performed in triplicate and 50, 70 and 90% effective doses and cytotoxic doses were calculated using SoftMaxPro software.
PHA-P-activated PBMC were treated with each of the drug under investigation (1:5 dilutions between 0.5 μM and […]) and infected with 100 TCID50 of either HIV-1-LAI (X4 tropic) or /Ba-L (R5 tropic) strain. Molecules and viruses were maintained throughout the culture, and cell supernatants were collected at day 7 post-infection from which reverse transcriptase activity was quantified. Experiments were performed in triplicate and 50, 70 and 90% effective doses (ED), in nM (±S.D.) were calculated using SoftMaxPro software.

Assay [3] has as its system clinical HIV-1 isolates. Kind of assay: Antiviral assay on the series of clinical HIV-1 isolates, summary in text (Example 4). The conditions noted are these: primary strains of Table 5. An excerpt: The antiviral assay was extended to a series of more clinically relevant primary strains, including 92UG029, SF162, 92US723, 96USHIPS4, 92HT599 and 98IN017.
Phytohemagglutinin (PHA)-P-activated PBMCs were infected either with the reference lymphotropic HIV-1/LAI strain (Barre-Sinoussi, et al., 1983) or with the reference macrophage-tropic HIV-1/Ba-L strain (Gartner, et al., 1986). These viruses were amplified in vitro with PHA-P-activated blood mononuclear cells. Viral stocks (including clinical isolates) were titrated using PHA-P-activated PBMCs, and 50% tissue culture infectious doses (TCID50) were calculated using Kärber's formula (Kärber, 1931). Viruses (125 TCID50) were incubated for 30 min with five concentrations (1:5 dilutions between 500 nM and 320 pM) of each of the molecules to be tested and added to 150 000 PBMCs (m.o.i.˜0.001). […] Viral replication was measured by quantifying reverse transcriptase (RT) activity in the cell culture supernatants using the Lenti RT Activity Kit (Cavisi) and AZT was used as reference anti-HIV-1 molecule. In parallel, cytotoxicity was evaluated on day 7 in uninfected PHA-P-activated PBMC using a colorimetric methyl-tetrazolium salt (MTS/PMS) assay (Promega). Experiments were performed in triplicate and 50, 70 and 90% effective doses (ED) were calculated using SoftMaxPro software.

The values below come from patent US9078928B2, “Conjugated molecules comprising a peptide derived from the CD4 receptor coupled to a polyanionic polypeptide for the treatment of AIDS” (Institut Pasteur, priority 2011, dated 2015).

Bounds are passed on as bounds.

In the case of “NH2-(CH2)3-CO-S-pF-D-pF-S-pF-D-pF-S-pF-D-pF-S [P3pF]”, in assay [1], the “ED70 VIH-1/Ba-L(R5) Average” value is listed as >500 nM and the “ED90 VIH-1/Ba-L(R5) Average” value is given as >500 nM. Also, in assay [2], the “ED70 VIH-1-LAI(X4) Average” value is >500 nM and the “ED90 VIH-1-LAI(X4) Average” value is recorded as >500 nM.
Turning to “NH2-(CH2)3-CO-S-YSO3-D-YSO3-S-YSO3-D-YSO3-S-YSO3-D-YS03-S (SXDXSXDXSXDXS; non-natural residues) [P3YSO3]”, the “antiviral activity against clinical isolates (in words)” value in assay [3] is “only poorly active or inactive”.
Regarding “NH2-(CH2)3-CO-S-Asu-D-Asu-S-Asu-D-Asu-F-Asu-F-D-Asu-S [P3Asu]”, in assay [1], the “ED70 VIH-1/Ba-L(R5) Average” value is listed as >500 nM and the “ED90 VIH-1/Ba-L(R5) Average” value is >500 nM. In assay [2], the “ED70 VIH-1-LAI(X4) Average” value is >500 nM and the “ED90 VIH-1-LAI(X4) Average” value is >500 nM.
